Tests used:
Dopamin = assay: Determination of dopamine in blood plasma of patients after administration (method of G. Weth); format: in vivo, Patienten; conditions: for Dopamin MW: 25 mg Captopril, mean of 12 patients, value at time 0: 110
Source text: (§1) Die Dopaminbestimmung wurde nach G. Weth, "Das Verhalten der Neurotransmitter....", Dissertation, Würzburg, 1987, S. 123-138, durchgeführt. Die Bestimmung von Prolaktin wurde radioimmunologisch nach den Methoden von P. Hwang, H. Guyda, H. Friesen, Proc. Nat. Sci. (USA) 1971, 68/8, S.1902-06 durchgeführt.
(§2) Für die Untersuchungen wurden 2x12 Patienten (Alter 75±10 Jahre), die unter Durchblutungsstörungen, sowohl peripheren als auch zentralen, litten, herangezogen. […]
Die Bestimmung der Dopamin- und Prolaktinwerte wurde wie folgt vorgenommen. In angegebenen Zeitabschnitten von 15, 30, 60 und 120 Minuten wurden dem Patienten je 5 ml Blut entnommen und in speziell präparierte Vakuum-Container, die Glutathion und EDTA enthielten, gegeben. Das Blut wurde sofort auf 2 °C abgekühlt und bei 2 °C zentrifugiert. Das überstehende Blutplasma wurde bis zur Dopamin- und Prolaktinbestimmung bei minus 80 °C tiefgefroren.
(§3) In den Tabellen sind die Ergebnisse der vorstehend angeführten pharmakologischen Untersuchungen zusammengestellt. Die Dimensionsangaben betragen für Dopamin pg/ml bzw. ng/l und für Prolaktin ng/ml.

Prolaktin = assay: Radioimmunological determination of prolactin in blood plasma of patients after administration; format: in vivo, Patienten; conditions: for Prolaktin MW: 25 mg Captopril, mean of 12 patients; for Prolaktinsenkung (Effekt): Fig. 2, result in words
Source text: as §1, §2
Die Bestimmung der Dopamin- und Prolaktinwerte wurde wie folgt vorgenommen. […] Das Blut wurde sofort auf 2 °C abgekühlt und bei 2 °C zentrifugiert. Das überstehende Blutplasma wurde bis zur Dopamin- und Prolaktinbestimmung bei minus 80 °C tiefgefroren.
as §3

C[C@H](CS)C(=O)N1CCC[C@H]1C(=O)O [Captopril]
Höhepunkt des Anstiegs von Dopamin (time) (Dopamin; 25 mg Captopril oral per patient (mean weight 60 kg), Fig. 1): ~60 min
Dopamin MW (Dopamin; 15 min after dosing): 163 pg/mL
Dopamin MW (Dopamin; 30 min after dosing): 210 pg/mL
Dopamin MW (Dopamin; 60 min after dosing): 291 pg/mL
Dopamin MW (Dopamin; 90 min after dosing): 250 pg/mL
Dopamin MW (Dopamin; 120 min after dosing): 211 pg/mL
Maximum der Dopaminfreisetzung (time) (Dopamin; 12,5 mg Captopril, Fig. 3): 60 min
Anstieg von Dopamin (Dopamin; 15 min after 25 mg Captopril oral per patient (mean weight 60 kg), Fig. 1, result in words): signifikanten Anstieg
Anstieg von Dopamin (Dopamin; 30 min after 25 mg Captopril, result in words): hochsignifikanten Anstieg
Anstieg (Dopaminfreisetzung) (Dopamin; 30 min after 12,5 mg Captopril, Fig. 3, result in words): signifikant
Prolaktin MW (Prolaktin; 15 min after dosing, value at time 0: 14,3): 13,6 ng/ml
Prolaktin MW (Prolaktin; 30 min after dosing, value at time 0: 14,8): 12,3 ng/ml
Prolaktin MW (Prolaktin; 60 min after dosing, value at time 0: 14,8): 9,0 ng/ml
Prolaktin MW (Prolaktin; 90 min after dosing, value at time 0: 14,8): 8,4 ng/ml
Prolaktin MW (Prolaktin; 120 min after dosing, value at time 0: 14,8): 7,9 ng/ml
Prolaktinsenkung (Effekt) (Prolaktin; 15 min after 25 mg Captopril oral per patient (mean weight 60 kg)): signifikanter
Prolaktinsenkung (Effekt) (Prolaktin; 60 min after 25 mg Captopril oral per patient (mean weight 60 kg)): hochsignifikanter

From patent EP0498899A1, “Use of N-(mercaptoacyl)-amino acids as dopaminergic und gonadoptropic medicaments” (Weth, Gosbert Dr. med., Dr. rer. nat., priority 1990, dated 1992)
